Results on nine compounds are retold here after US20070275953A1 (priority 2003, published 2007).

Holding throughout (format): cell-based
Experiment [1] deals with HIV-1 with WT (wild type) RT in P4 cells. The experiment in a line: Anti-HIV assay on P4 cell line, WT RT. The settings on record: for EC50 / SI (selectivity index = CC50/EC50): P4 cell line, WT RT; for EC50: read-out: EC50 WT. The method, then:
For the antiviral and the cytotoxicity assays, the drugs were diluted in complete DMEM medium. In these experiments, drugs were diluted in triplicate wells in a 96-well plate in six, 5 fold serial dilutions.
Two days later, co-cultivation with SupT1 cells (a human T-cell lymphoma cell line) was initiated to facilitate rapid production of progeny virions. Production of virus was measured by using the Innotest HIV Antigen mAb p24 kit (Innogenetics). At the peak of production cultures were harvested and filtered. The virus stocks were stored at −80° C. until used.
Anti-HIV activity and cytotoxicity of the compounds were tested on a P4 cell line. […] The P4 cells were cultured in complete DMEM medium supplemented with 10% fetal bovine serum (FBS), 0.5% of Penicillin/Streptomycin and G418 at 0.5 mg/ml. Exponentially growing cells were trypsinized, centrifuged and split twice weekly at 5.10^4 cells/ml.
The P4 cells are HIV-infectible Hela-CD4 cells that carry the bacterial lacZ gene under the control of the HIV-1 long terminal repeat (LTR). In this cell line, transcription of the LacZ gene is driven by the HIV-1 LTR. […] In other words, in this system, the expression level of the β-galactosidase gene is proportional to the viral replication.
(§1) Briefly, in the anti-HIV assay 100 Ål of P4 cells were plated in 96-well plate at a concentration of 0.4 10^5 cells/ml and incubated at 37° C., 5% CO2. After 48 h, the medium was removed and 100 Ål of the different drugs dilutions were added to the cells. Four hours after the addition of the drugs all cells were infected with equal amount of cell-free virus, corresponding to 100 ng of HIV p24 antigen. After 48 h of incubation at 37° C., 5% CO2, β-galactosidase activity was measured using chlorophenol red-β-D-galactopyranoside assays.
Each assay was performed a minimum of three times. The 50% effective concentration (Ec50) was calculated from each dose response curve using the CurveExpert 1.3 software.

The subject of experiment [2] is HIV-1 mutant Cys188RT in MT4 cells. Kind of experiment: Anti-HIV assay on MT4 cells, Cys188RT mutant. The text has this:
(§2) In order to introduce mutation(s) at the level of the pol gene coding for the RT in the pNL4-3 plasmid containing the complete viral genome (Adachi et al., 1986. J. Virol., Vol. 59 p 284-291) we used the “Quick change mutagenesis kit” (Stratagene). The following mutations were separately introduced in pNL4-3: L100I, K103N, V108I, Y181C, Y188C, and the double mutations K103N/V108I. These mutations were chosen because of the resistance that they confer to existing NNRTI. The production procedure of the mutant viral stocks is identical to the one described above.
(§3) Anti-HIV activity of the compounds was tested on MT-4 cell line. The MT-4 cell line (Larder et al. 1989. Sciences, Vol. 243 p 1731) was received from the NIH AIDS Research and Reference Reagent Program. These cells were cultured in RPMI medium supplemented with 10% fetal bovine serum (FBS), and 1% Penicillin/Streptomycin. The cultures were split regularly to keep cells densities between 0.3 to 1.2 10^6 cells/ml.
(§4) The MT-4 cells rapidly die upon infection by HIV. In this system there is an inverse correlation between cells survival and the amount of viral replication.
(§5) Briefly, in the anti-HIV assay exponentially growing MT-4 cells were infected with HIV-1. 100 μl of infected MT-4 cells were seeded in 96-well plate at a concentration of 0.4 10^5 cells/ml, and 100 μl of the different drugs dilutions were added to the cells. After 4 days of incubation at 37° C., 5% CO2, cells survival was measured using MTS (3-(4-5-dimethylthiazol-2-yl)-5-(−(3-carboxymethoxyphenyl)-2-(4-sulfophenyl)-2H-tetrazolium) assays. This compound is reduced by viable cells in a colored soluble formazan salt.
(§6) The absorbance was measured on a Benchmark™ Microplate Reader (Biorad) (λ=490 nm) and compared with 12 cell control replicates (nor virus nor drug added) and 12 virus control wells (no drug added). Each assay was performed a minimum of three times. The 50% effective concentration (EC50) was calculated from each dose response curve using the CurveExpert 1.3 software.

The subject of experiment [3] is HIV-1 mutant Cys181RT in P4 cells. The experiment in a line: Anti-HIV assay on P4 cells, Cys181RT mutant.
Source text: as §2
Anti-HIV activity and cytotoxicity of the compounds were tested on a P4 cell line. The P4 cell line (Clavel & Charneau, 1994. J. Virol., Vol. 68 p 1179-1185) was provided by Dr. François Clavel (Unité de recherche antivirale de l'hôpital Xavier Bichat Paris: Inserm). The P4 cells were cultured in complete DMEM medium supplemented with 10% fetal bovine serum (FBS), 0.5% of Penicillin/Streptomycin and G418 at 0.5 mg/ml. Exponentially growing cells were trypsinized, centrifuged and split twice weekly at 5.10^4 cells/ml.
The P4 cells are HIV-infectible Hela-CD4 cells that carry the bacterial lacZ gene under the control of the HIV-1 long terminal repeat (LTR). In this cell line, transcription of the LacZ gene is driven by the HIV-1 LTR. As such, the cytoplasmic accumulation of β-galactosidase is strictly dependent on the presence of the HIV transactivator Tat produced during the intracellular viral replication (Clavel & Charneau, 1994. J. Virol., Vol. 68, p. 1179-1185). In other words, in this system, the expression level of the β-galactosidase gene is proportional to the viral replication.
as §1
The absorbance was measured on a Benchmark™ Microplate Reader (Biorad) (λ=570 nm) and compared with 12 cell control replicates (no virus or drug added) and 12 virus control wells (no drug added). Each assay was performed a minimum of three times. The 50% effective concentration (Ec50) was calculated from each dose response curve using the CurveExpert 1.3 software. As Nevirapine activity corresponds to its published values (10-100 nM), the data are consistent with other measures of viral replication.

For experiment [4], the system named is HIV-1 mutant Ile100RT in MT4 cells. The experiment in a line: Anti-HIV assay on MT4 cells, Ile100RT mutant.
Source text: as §2, §3, §4, §5, §6

Experiment [5] relates to HIV-1 mutant Ile108RT in MT4 cells. Kind of experiment: Anti-HIV assay on MT4 cells, Ile108RT mutant.
Source text: as §2, §3, §4, §5, §6

For experiment [6], the system named is HIV-1 mutant Asn103/Ile108RT in MT4 cells. Kind of experiment: Anti-HIV assay on MT4 cells, Asn103/Ile108RT double mutant.
Source text: as §2, §3, §4, §5, §6

[7] abbreviates: Human immunodeficiency virus 1, MT4, read-out: EC50 Cys188RT MT4.
The mark [8] stands for this setting: Human immunodeficiency virus 1, read-out: EC50 Cys181RT P4.
The mark [9] stands for this setting: Human immunodeficiency virus 1, MT4, read-out: EC50 Ile100RT MT4.
Where [10] appears, read: Human immunodeficiency virus 1, MT4, read-out: EC50 Ile108RT MT4.
Where [11] appears, read: Human immunodeficiency virus 1, MT4, read-out: EC50 Asn103/Ile108RT MT4.
The mark [12] stands for this setting: MT4, double mutant Asn103/Ile108RT.
Setting [13] is: P4, mutant Cys181RT, read-out: EC50 Cys181RT P4.
The mark [14] stands for this setting: MT4, mutant Cys188RT, read-out: EC50 Cys188RT MT4.
The mark [15] stands for this setting: MT4, mutant Ile108RT, read-out: EC50 Ile108RT MT4.

Each structure is given as a SMILES string. Where two headings read alike, the source gives them in different places.

For `O=C1Nc2ccc(Cl)cc2[C@@](C#CC2CC2)(C(F)(F)F)O1` [Efavirenz, reference compound], the EC50 in experiment [1] (Human immunodeficiency virus 1) is less than 1 nM; in experiment [2] (setting [7]), 1 nM; in experiment [3] (setting [8]), less than 1 nM; in experiment [4] (setting [9]), 178 nM; in experiment [5] (setting [10]) it was less than 1 nM; in experiment [6] (setting [11]), 1190 nM.
As for `Cc1ccnc2c1NC(=O)c1cccnc1N2C1CC1` [Nevirapine, reference compound], the EC50 in experiment [1] (Human immunodeficiency virus 1) is 29 nM; in experiment [2] (setting [7]), greater than 5000 nM; in experiment [3] (setting [8]), 10000 nM; in experiment [4] (setting [9]), 2060 nM; in experiment [5] (setting [10]), 1270 nM. For the same compound, the “SI (selectivity index = CC50/EC50)” value in experiment [1] amounted to 3448. For the same compound, in experiment [6] (setting [12]), the “EC50 Asn103/Ile108RT MT4” value was “inactive”.
With `CCOC(=O)c1c(OC2CC(C)CC(C)C2)c(CC)c(C)[nH]c1=O` (single isomer, unassigned) [Z37inv], in experiment [1], the “antiviral activity compared with Z37A or the mixture of stereoisomers” value is reported as “higher than the activity observed for either Z37A or the mixture of stereoisomers” and the EC50 came to 36 nM. In addition, the EC50 in experiment [3] (setting [13]) was found to be 1970 nM.
Consider `CCc1c(C)[nH]c(=O)c(N(C)C)c1OC1CC(C)CC(C)C1` (stereo not drawn) [Z150, 3-(dimethylamino)-5-ethyl-6-methyl-4-[(3,5-dimethylcyclohexyl)oxy]pyridine-2(1H)-one], for which the EC50 in experiment [1] (Human immunodeficiency virus 1) was less than 1 nM; in experiment [2] (setting [7]), 6 nM; in experiment [3] (setting [8]), 61 nM; in experiment [4] (setting [9]), 87 nM; in experiment [5] (setting [10]), less than 1 nM; in experiment [6] (setting [11]) it was 958 nM. Also, the “SI (selectivity index = CC50/EC50)” value in experiment [1] is given as greater than 66000.
Turning to `CCc1c(C)[nH]c(=O)c(CO)c1OC1CC(C)CC(C)C1` (stereo not drawn) [Z45inv], the EC50 is 23 nM in experiment [1] and 496 nM in experiment [3] (setting [13]).
As for `CCc1c(C)[nH]c(=O)c([N+](=O)[O-])c1OC1CC(C)CC(C)C1` (stereo not drawn) [Z91inv, 3-nitro-5-ethyl-6-methyl-4-[(3,5-dimethylcyclohexyl)oxy]pyridine-2(1H)-one], the EC50 in experiment [1] (Human immunodeficiency virus 1) was less than 1 nM; in experiment [2] (setting [7]) it was 43 nM; in experiment [3] (setting [8]), 46 nM; in experiment [4] (setting [9]), 1380 nM; in experiment [5] (setting [10]) it was 72 nM; in experiment [6] (setting [11]) it was 9900 nM. The “SI (selectivity index = CC50/EC50)” value in experiment [1] is greater than 37200.
Take `CCc1c(C)[nH]c(=O)c(C)c1OC1CC(C)CC(C)C1` (stereo not drawn) [Z154]: the EC50 in experiment [1] is less than 1 nM.
As to `CCc1c(C)[nH]c(=O)c(CSC(C)=O)c1OC1CC(C)CC(C)C1` (stereo not drawn) [Z114], the EC50 in experiment [1] came out at 7 nM; in experiment [2] (setting [14]) it was 1680 nM; in experiment [3] (setting [13]), 87 nM; in experiment [5] (setting [15]), 12000 nM. For the same compound, the “EC50 Ile100RT MT4” value in experiment [4] (MT4, mutant Ile100RT) is “Inactive”. Also, in experiment [6] (setting [12]), the “EC50 Asn103/Ile108RT MT4” value was “inactive”.
Consider `CCc1c(C)[nH]c(=O)c(CN=[N+]=[N-])c1OC1CC(C)CC(C)C1` (stereo not drawn) [Z153], for which the EC50 in experiment [1] was less than 1 nM; in experiment [2] (setting [14]), 33 nM; in experiment [3] (setting [13]), 108 nM; in experiment [4] (MT4, mutant Ile100RT, read-out: EC50 Ile100RT MT4) it was 187 nM; in experiment [5] (setting [15]) it was 8 nM; in experiment [6] (MT4, double mutant Asn103/Ile108RT, read-out: EC50 Asn103/Ile108RT MT4) it was 3480 nM.
